Reference: PMC8501045, “Addressing MRSA infection and antibacterial resistance with peptoid polymers” (Nature Communications, 2021)
Converted amounts (≈) assume the structure as drawn. “And” between values parts separate entries of the source, which are not always exact repeats. Identical values can stand only once.

Tests used:
[1] = test system: S. aureus USA300 LAC biofilm; test: Mouse keratitis model, MRSA biofilm on contact lens; format: in vivo; details: 1.56 mg/mL topical
Method: The contact lenses were cut into discs with a diameter of 3.5 mm and placed in a 96-well plate. The discs were soaked with 150 μL of MH medium overnight. Then the discs were transferred to a new 96-well plate and 150 μL of S. aureus USA300 LAC suspension (10^5 CFU/mL in MH medium) was added into corresponding wells. The plate was incubated at 37 °C with shaking at 100 rpm. After 2 h incubation, the suspension was aspirated and the lenses were washed with PBS to remove any nonadherent cells, followed by the addition of 150 μL of fresh MH medium. The plate containing the contact lenses with adhered cells was incubated at 37 °C with shaking at 100 rpm for 18 h to allow biofilm formation.
Male balb/c mice (22–24 g) were intraperitoneally injected with cyclophosphamide (150 mg/kg at 4 days and 100 mg/kg at 1 day before inducing keratitis) for immunosuppression. […] In addition, 0.5% tetracaine hydrochloride eye drops were used as topical anesthesia and then a 2 mm-diameter filter paper disc containing 2 μL of 99% 1-heptanol was placed on the center of the cornea for 15 min. […] All mice were killed and the eyeballs of each mouse were collected immediately 30 min after the last treatment, followed by the quantitative analysis of bacterial burden.

E. faecium 1205 = test: MIC assay, clinical isolate; format: cell-based; details: Enterococcus faecium, 1205
Method: MRSA (S. aureus Mu50, S. aureus Newman, S. aureus USA400, S. aureus USA300 LAC, S. aureus USA300) were obtained from Shanghai Institute of Materia Medica, Chinese Academy of Sciences. All clinically isolated Gram-positive bacteria used in this study were isolated from patients with various infections, different ages and sexes in the Shanghai Ruijin Rehabilitation Hospital. All strains were cultured in Luria-Bertani (LB) medium at 37 °C before use.
Bacteria were cultured in LB medium at 37 °C for 10 h, and then the bacterial suspension was diluted in Mueller–Hinton (MH) medium to a cell density of 2 × 10^5 colony forming units (CFU)/mL as the working suspension. The poly(Naeg)20 was serially diluted by MH medium in a 96-well plate, and an equal volume of bacterial suspension was added into each well. The final concentration of the poly(Naeg)20 was ranging from 200 to 1.56 μg/mL, and the plates were incubated at 37 °C for 9 h. Wells with inoculum and no polymer were used as the positive control; wells with only MH medium were used as the blank. The optical density (OD) in each well was measured on a Molecular Devices SpectraMax M2 precision microplate reader. The percentage of bacteria growth was calculated from1 %cellgrowth=A600polymer-A600blank/A600control-A600blank×100
(§1) The test was independently repeated at least three times.

[2] = test system: S. aureus USA300 mature biofilm; test: Activity against mature biofilm; format: cell-based, Staphylococcus aureus; details: for Biofilm survival(%): vancomycin, r4-r9 = 32, 64, 128, 256, 512, 1024 MIC
Method: The plate was incubated at 37 °C for 24 h to allow biofilm formation. […] Then MTT assay was used to determine the biofilm viability. Wells containing inoculum and without antibacterial agents were used as the positive control; wells containing only MH medium were used as the blank. The percentage of surviving cells within biofilm was calculated from5 %cellviability=A570polymer-A570blank/A570control-A570blank×100
as §1

S. epidermidis 9397 = test: Mouse peritonitis model, CFU in organs, blood and IP fluid, S. epidermidis; format: in vivo; details: Figure 6e
Method: (§2) This infection model was conducted according to the previously reported method with slight modification. Female ICR mice (21–24 g) were used for MRSA-infected peritonitis model. Mice were infected by intraperitoneal administration of 0.2 mL of S. aureus USA300 LAC in saline (7.5 × 10^8 CFU/mL) supplemented with 5% mucin. […] Once the infected mice died, peritoneal lavage was performed by injecting 3.0 mL of saline into the peritoneal cavity and massaging the abdomen. Subsequently, the abdomen was opened and peritoneal fluid was recovered from the abdominal cavity for analysis. Blood samples were collected through cardiac puncture for analysis of CFU/mL. Then, different organs including the heart, liver, spleen, lung, and kidney were removed and homogenized in 0.1% TX-100 solution. The homogenate was serially diluted for plating on LB agar. After incubation at 37 °C for 14 h, the number of colonies on the plate was counted to calculate the bacteria burden. Surviving mice were euthanized at 48 h after infection. The blood, peritoneal fluid, and organs were collected for the determination of bacterial colonies. […] For the pretreatment group, mice were sacrificed and tissues were harvested to determine the CFU at 1 h post infection.
For experiments of S. epidermidis and S. haemolyticus infections, female ICR mice (22–24 g) were rendered neutropenic by treatment with 150 and 100 mg/kg of cyclophosphamide intraperitoneally at 4 days and 1 day prior to infection. Mice were infected by intraperitoneal administration of 0.2 mL of S. epidermidis 9397 (5.1 × 10^9 CFU/mL) or S. haemolyticus 0202 (2.6 × 10^9 CFU/mL) in saline. Other experiment conditions were similar to those in MRSA peritonitis model.

S. haemolyticus 0202 = test: Mouse peritonitis model, survival test, S. haemolyticus; format: in vivo; details: i.p. 20 mg/kg, 7 days
Method: as §2, with “post infection. […]” for “post infection.”

CN[C@H](CC(C)C)C(=O)N[C@H]1C(=O)N[C@@H](CC(N)=O)C(=O)N[C@H]2C(=O)N[C@H]3C(=O)N[C@H](C(=O)N[C@H](C(=O)O)c4cc(O)cc(O)c4-c4cc3ccc4O)[C@H](O)c3ccc(c(Cl)c3)Oc3cc2cc(c3O[C@@H]2O[C@H](CO)[C@@H](O)[C@H](O)[C@H]2O[C@H]2C[C@](C)(N)[C@H](O)[C@H](C)O2)Oc2ccc(cc2Cl)[C@H]1O [Vancomycin]
reduction of the bacterial load of each eye of the mouse [1]: ineffective | MIC (E. faecium 1205): 0.39 µg/mL (≈ 0.269 µM) | concentration that eradicates mature biofilms of S. aureus [2]: > 1024 × MIC | Biofilm survival(%) ([2]; replicate 1): 57.1927% and 41.3774% and 45.7038% and 29.4643% and 29.3131% and 28.1882% | Biofilm survival(%) ([2]; replicate 2): 57.8677% and 50.7936% and 39.7472% and 30.2942% and 28.1255% and 26.0416% | Log10(CFU/mL IP fluid) (S. epidermidis 9397; individual mouse 1 of 6): 6.824 Log10(CFU/mL) | Log10(CFU/mL IP fluid) (S. epidermidis 9397; individual mouse 2 of 6): 5.982 Log10(CFU/mL) | Log10(CFU/mL IP fluid) (S. epidermidis 9397; individual mouse 3 of 6): 4.068 Log10(CFU/mL) | Log10(CFU/mL IP fluid) (S. epidermidis 9397; individual mouse 4 of 6): 3.222 Log10(CFU/mL) | Log10(CFU/mL IP fluid) (S. epidermidis 9397; individual mouse 5 of 6): 3.067 Log10(CFU/mL) | Log10(CFU/mL IP fluid) (S. epidermidis 9397; individual mouse 6 of 6): 4.206 Log10(CFU/mL) | Log10(CFU/mL Blood) (S. epidermidis 9397; individual mouse 1 of 6): 4.311 Log10(CFU/mL) | Log10(CFU/mL Blood) (S. epidermidis 9397; individual mouse 2 of 6): 4.38 Log10(CFU/mL) | Log10(CFU/mL Blood) (S. epidermidis 9397; individual mouse 3 of 6): 2.602 Log10(CFU/mL) | Log10(CFU/mL Blood) (S. epidermidis 9397; individual mouse 4 of 6): 2.824 Log10(CFU/mL) | Log10(CFU/mL Blood) (S. epidermidis 9397; individual mouse 5 of 6): 0 Log10(CFU/mL) | Log10(CFU/mL Blood) (S. epidermidis 9397; individual mouse 6 of 6): 2.301 Log10(CFU/mL) | Log10(CFU/g Heart) (S. epidermidis 9397; individual mouse 1 of 6): 5.45 Log10(CFU/g) | Log10(CFU/g Heart) (S. epidermidis 9397; individual mouse 2 of 6): 5.747 Log10(CFU/g) | Log10(CFU/g Heart) (S. epidermidis 9397; individual mouse 3 of 6): 5.222 Log10(CFU/g) | Log10(CFU/g Heart) (S. epidermidis 9397; individual mouse 4 of 6): 5.315 Log10(CFU/g) | Log10(CFU/g Heart) (S. epidermidis 9397; individual mouse 5 of 6): 4.186 Log10(CFU/g) | Log10(CFU/g Heart) (S. epidermidis 9397; individual mouse 6 of 6): 4.735 Log10(CFU/g) | Log10(CFU/g Kidney) (S. epidermidis 9397; individual mouse 1 of 6): 6.633 Log10(CFU/g) | Log10(CFU/g Kidney) (S. epidermidis 9397; individual mouse 2 of 6): 6.452 Log10(CFU/g) | Log10(CFU/g Kidney) (S. epidermidis 9397; individual mouse 3 of 6): 4.81 Log10(CFU/g) | Log10(CFU/g Kidney) (S. epidermidis 9397; individual mouse 4 of 6): 4.699 Log10(CFU/g) | Log10(CFU/g Kidney) (S. epidermidis 9397; individual mouse 5 of 6): 4.119 Log10(CFU/g) | Log10(CFU/g Kidney) (S. epidermidis 9397; individual mouse 6 of 6): 4.752 Log10(CFU/g) | Log10(CFU/g Liver) (S. epidermidis 9397; individual mouse 1 of 6): 7.125 Log10(CFU/g) | Log10(CFU/g Liver) (S. epidermidis 9397; individual mouse 2 of 6): 7.288 Log10(CFU/g) | Log10(CFU/g Liver) (S. epidermidis 9397; individual mouse 3 of 6): 4.887 Log10(CFU/g) | Log10(CFU/g Liver) (S. epidermidis 9397; individual mouse 4 of 6): 4.845 Log10(CFU/g) | Log10(CFU/g Liver) (S. epidermidis 9397; individual mouse 5 of 6): 3.985 Log10(CFU/g) | Log10(CFU/g Liver) (S. epidermidis 9397; individual mouse 6 of 6): 5.176 Log10(CFU/g) | Log10(CFU/g Lung) (S. epidermidis 9397; individual mouse 1 of 6): 6.477 Log10(CFU/g) | Log10(CFU/g Lung) (S. epidermidis 9397; individual mouse 2 of 6): 5.954 Log10(CFU/g) | Log10(CFU/g Lung) (S. epidermidis 9397; individual mouse 3 of 6): 6.211 Log10(CFU/g) | Log10(CFU/g Lung) (S. epidermidis 9397; individual mouse 4 of 6): 5.171 Log10(CFU/g) | Log10(CFU/g Lung) (S. epidermidis 9397; individual mouse 5 of 6): 3.564 Log10(CFU/g) | Log10(CFU/g Lung) (S. epidermidis 9397; individual mouse 6 of 6): 4.434 Log10(CFU/g) | Log10(CFU/g Spleen) (S. epidermidis 9397; individual mouse 1 of 6): 7.954 Log10(CFU/g) | Log10(CFU/g Spleen) (S. epidermidis 9397; individual mouse 2 of 6): 7.349 Log10(CFU/g) | Log10(CFU/g Spleen) (S. epidermidis 9397; individual mouse 3 of 6): 7.368 Log10(CFU/g) | Log10(CFU/g Spleen) (S. epidermidis 9397; individual mouse 4 of 6): 5.666 Log10(CFU/g) | Log10(CFU/g Spleen) (S. epidermidis 9397; individual mouse 5 of 6): 5.977 Log10(CFU/g) | Log10(CFU/g Spleen) (S. epidermidis 9397; individual mouse 6 of 6): 6.041 Log10(CFU/g) | survival of the mice (S. haemolyticus 0202): 100%
